{"source": "patent US11819535B2", "about": "“Composition and methods for regulating extracellular matrix accumulation” (UNIVERSITY HEALTH NETWORK, priority 2018, dated 2023)", "key": {"[1]": {"test_system": "dermal primary human fibroblasts (dPHFs)", "test": "Western blot of fibronectin, collagen-1 and PAI-1 in dermal primary human fibroblasts", "assay_type": "cell-based", "conditions": "for effect on intracellular levels of fibronectin and collagen-1 / effect on downregulation of extracellular fibronectin and collagen-1 by caffeic acid: caffeic acid (40 uM) treated dPHFs; for effect on downregulation of extracellular fibronectin and collagen-1 by caffeic acid: in a dose dependent manner; for extracellular levels of fibronectin, collagen-1, and PAI-1 (ECM proteins): Etomoxir 10 uM, BAY-876 40 nM, FIG. 2A"}, "SMAD3": {"test_system": "SMAD3", "test": "SMAD3 luciferase reporter in dPHFs", "assay_type": "cell-based, human", "conditions": "for SMAD3 dependent transcription: in response to TGF-B1, caffeic acid 40 uM, WZB-117 10 uM, 2-DG 2 mM", "procedure": "SMAD3 luciferase reporter was constructed as previously described^26. Oligos containing SMAD3 binding sites were designed with BamH1 and Sal1 digestion sites. Forward: 5′-[…]-3′, reverse: 5′-[…]-3′. SMAD oligoes were inserted into a p-delta-51 LUC II reporter. dPHFs were electroporated with construct using an Amaxa mouse neural stem cell nucleofactor kit (Lonza). 24 hours after electroporation, cells were treated as above (cell culture) for 24 hours and lysed to assess for luciferase and renilla activity. Relative luciferase activity was defined as the level of luciferase bioluminescence divided by renilla bioluminescence for each sample."}, "[2]": {"test_system": "dermal primary human fibroblasts (dPHFs)", "test": "Lysosome quantification (LysoTracker) and TFEB expression in dPHFs", "assay_type": "cell-based", "conditions": "TGF-B1 3 ng/ml; caffeic acid 40 uM", "procedure": "dPHFs were treated as per above (cell culture) and exposed to LysoTracker (ThermoFisher) as per manufacturer's instructions on a 4 chamber cover glass system (ThermoFisher). Images were obtained using an Olympus Fluoview laser-scanning confocal microscope. Fluorescence intensity was quantitated per cell using the Object Identification module and Measurement function of Volocity software. Cell area was measured using ImageJ software."}, "[3]": {"test_system": "dermal primary human fibroblasts (dPHFs)", "test": "FAO and glycolysis functional assessment (Seahorse) in dPHFs", "assay_type": "cell-based", "conditions": "TGF-B1 stimulated dPHFs", "procedure": "FAO and Glycolysis Functional Assessment for dPHFs • Seahorse experiments were performed on an XFe96 analyzer (Aligent) based on manufacturer's instructions. dPHFs were prepared as per above (cell culture) on an XF96 culture plate. For glycolysis profiling, final concentration of glucose (1 mM or 10 mM), oligomycin (1 uM), and 2-DG (100 mM) was utilized. For FAO, palmitate sodium (Sigma) and BSA-fatty acid free (Sigma) were used to make palmitate-BSA (0.17 mM) as per manufacturer's instructions. Etomoxir (Tocris) 40 uM final concentration was used."}, "[4]": {"test_system": "dermal primary human fibroblasts (dPHFs)", "test": "DQ-collagen-1 / lysotracker co-localization in dPHFs", "assay_type": "cell-based", "conditions": "TGF-B1 3 ng/ml; caffeic acid 40 uM"}, "[5]": {"test_system": "dermal primary human fibroblasts (dPHFs)", "test": "qRT-PCR gene expression profiling in dPHFs", "assay_type": "cell-based", "conditions": "caffeic acid 40 uM", "procedure": "dPHFs obtained from ATCC (PCS-201-012) were cultured in DMEM with 5% FBS. Mesenchymal cells were isolated primarily from C3H or B6 mice. Animals were euthanized and intraperitoneal fat or skin was dissected and minced. Collagenase and hyaluronidase (Stem cell technologies) digestion was performed in a rotating oven at 37 C for 1 hour, passed through a 70 uM filter, and then plated in DMEM+10% FSB to expand the mesenchymal population. Cells were starved for 12 hours in MEM media prior to treatment with TGF-B1 (Sigma), caffeic acid (Sigma), dichloroacetic acid (Sigma), PDGF-BB (R&D Systems), and/or etomoxir (Tocris). All protein and mRNA profiling was performed at 24 hours post-treatment except for PDGF-BB, which was performed at 48 hours post-treatment.\nFor human and murine skin samples, skin samples were macrodissected and snap frozen in liquid nitrogen and stored at −80° C. For in vitro experiments, cells were trypsinized and either snap frozen in liquid nitrogen or immediately underwent RNA extraction. All RNA was extracted using the RNeasy Mini Kit (Qiagen) according to manufacturer instructions. RNA quality was measured and quantified using either the NanoDrop 2000c Spectrophotometer (Thermo Scientific); we used either A260/280 for cell samples, or RIN for human and murine samples using a 2100 bioanalyzer (Aligent). cDNA was synthesized from normalized amounts of RNA using random hexamer primers and SuperScript III (Invitrogen) on a PTC-200 Peltier Thermal Cycler. Primers were obtained from peer-reviewed publications whenever possible. See Table S1 for references and amplicon size. Primers were validated through BLASTing to ensure specificity, size confirmation by gel electrophoresis at first time use, and by melting curve assessment for all reactions. PCR efficiency was measured using a standard curve through the dilution of a representative sample to determine the linear range of cDNA amounts for qRT-PCR reactions. qRT-PCR reactions were performed on 384-well plates (Applied Biosystems) using SYBR Green PCR Master Mix (Applied Biosystems). The analysis was run on the 7900HT Fast Real-Time PCR System (Applied Biosystems). Reaction conditions for cDNA synthesis and qRT-PCR are found in supplementary data Table S2 and S3 respectively. A no template control was used to monitor contamination and false positive results from primer-dimers. Results of no template controls were confirmed to have higher CT-values and distinct melting curves compared to template reactions. 18S ribosomal RNA was used as an internal control. A 2^−ΔΔCT method was used for relative quantification and for graphical representation in figures. Statistical analysis was performed on biological replicates using Relative Expression Software Tool (REST)^24 set to default parameters."}, "CD36": {"test_system": "CD36", "test": "CD36 gene (qRT-PCR) and surface (flow cytometry) expression in dPHFs", "assay_type": "cell-based, human", "procedure": "For human and murine skin samples, skin samples were macrodissected and snap frozen in liquid nitrogen and stored at −80° C. For in vitro experiments, cells were trypsinized and either snap frozen in liquid nitrogen or immediately underwent RNA extraction. All RNA was extracted using the RNeasy Mini Kit (Qiagen) according to manufacturer instructions. RNA quality was measured and quantified using either the NanoDrop 2000c Spectrophotometer (Thermo Scientific); we used either A260/280 for cell samples, or RIN for human and murine samples using a 2100 bioanalyzer (Aligent). cDNA was synthesized from normalized amounts of RNA using random hexamer primers and SuperScript III (Invitrogen) on a PTC-200 Peltier Thermal Cycler. Primers were obtained from peer-reviewed publications whenever possible. See Table S1 for references and amplicon size. […] PCR efficiency was measured using a standard curve through the dilution of a representative sample to determine the linear range of cDNA amounts for qRT-PCR reactions. qRT-PCR reactions were performed on 384-well plates (Applied Biosystems) using SYBR Green PCR Master Mix (Applied Biosystems). […] A 2^−ΔΔCT method was used for relative quantification and for graphical representation in figures. […]"}, "[6]": {"test_system": "radiation-induced skin fibrosis", "test": "Murine radiation-induced skin fibrosis model", "assay_type": "in vivo, mice", "source_text": "All animal procedures were approved by Animal Care Committee at the University Health Network under AUP 3422. A murine skin fibrosis model was created by radiating the hindlimb of C3H/HeJ mice (Jackson Laboratory) or B6.12951-Cd36^tm1Mfe/J mice (Jackson Laboratory) using an XRAD 225Cx (Precision X-Ray) and a 2.5 cm collimator. Prior to irradiation, fluoroscopic imaging was used to confirm and standardize the irradiation site. 40 Gy for C3H mice or 30 Gy for B6 mice was divided equally on the dorsal and ventral side of the leg. Animals were randomized into groups for treatment by a researcher blinded to treatment assignment. For CD36^high cell treatment, 1×10^6 cells in 100 ul PBS were injected into the hindlimb subdermally at 3 sites weekly for 3 weeks starting at 4 weeks post-irradiation. For caffeic acid phenethyl ester treatment, 10 mg/kg was given by intraperitoneal injection by a researcher blinded to treatment. Caffeic acid phenethyl ester or vehicle control was given 3× per week for 10 weeks starting at 1 week post-irradiation. Leg contracture measurement was performed, as previously published^21, after first sedating mice with inhalation anesthesia and ensuring deep sedation through no pain reflex and no muscle tone. Then mice hips were fixed on a custom apparatus. 0.1N equivalent weight was then used to extend the fibrotic and contralateral normal leg and leg extension was measured using a standardized ruler by two assessors blinded to treatment groups. Percentage leg contracture was calculated as 1−leg extension of fibrotic leg/leg extension of contralateral normal leg. Leg contracture was measured biweekly and averaged for the week.\nFormalin-fixed, paraffin-embedded 8 um sections treated with Masson's Trichrome Stain were whole slide scanned using Aperio ScanScope XT. Analysis was performed by a researched blinded to treatment. Using ImageJ, whole slide scanned images were loaded using the […] plugin, and then stacked to RGB. Colour deconvolution was used to separate the full-colour images into their red, green and blue components. A threshold of pixel intensity was optimized and set and standardized for all images. A ratio of blue (trichrome) to red (nuclear) pixel density was derived for each image, representing collagen to cell ratio."}, "[7]": {"conditions": "TGF-B1 treated dPHFs, caffeic acid 40 uM"}, "[8]": {"conditions": "mice with skin fibrosis, CAPE IP 10 mg/Kg 3 times per week for 10 weeks"}}}
{"molecule": "CCN(CC)CCCC(C)Nc1ccnc2cc(Cl)ccc12", "note": "(stereo not shown) [chloroquine]", "values": [{"measurement": "effect on intracellular levels of fibronectin and collagen-1", "setting": "[1]", "value": "no effect"}, {"measurement": "effect on downregulation of extracellular fibronectin and collagen-1 by caffeic acid", "setting": "[1]", "value": "inhibit"}]}
{"molecule": "O=C(Oc1cccc(F)c1OC(=O)c1cccc(O)c1)c1cccc(O)c1", "note": "[WZB-117]", "values": [{"measurement": "SMAD3 dependent transcription", "setting": "SMAD3", "value": "inhibited"}, {"measurement": "extracellular fibronectin, collagen-1 and PAI-1 protein levels", "setting": "[1]; TGF-B1 3 ng/ml, WZB-117 10 uM, even in dPHFs lacking PPARG and ACOX1", "value": "reduced"}, {"measurement": "extracellular levels of fibronectin, collagen-1, and PAI-1 (ECM proteins)", "setting": "[1]; dPHFs, WZB-117 10 uM", "value": "downregulation"}]}
{"molecule": "O=CC[C@@H](O)[C@H](O)[C@H](O)CO", "note": "[2-DG, 2-deoxy-d-glucose]", "values": [{"measurement": "SMAD3 dependent transcription", "setting": "SMAD3", "value": "inhibited"}, {"measurement": "extracellular levels of fibronectin, collagen-1, and PAI-1 (ECM proteins)", "setting": "[1]; dPHFs, WZB-117 10 uM", "value": "downregulation"}]}
{"molecule": "O=C(O)/C=C/c1ccc(O)c(O)c1", "note": "[caffeic acid]", "values": [{"measurement": "SMAD3 dependent transcription", "setting": "SMAD3", "value": "reduced"}, {"measurement": "expression of TFEB and lysosomes in dPHFs", "setting": "[2]", "value": "increasing"}, {"measurement": "functional shift of metabolism (glycolysis vs FAO)", "setting": "[3]", "value": "functionally shifted metabolism from glycolysis to FAO"}, {"measurement": "co-localization between DQ-collagen-1 and lysosomes", "setting": "[4]", "value": "significant increase"}, {"measurement": "PPAR genes expression", "setting": "[5]; TGF-B1 (3 ng/ml) treated dPHFs", "value": "upregulated"}, {"measurement": "glycolysis genes expression", "setting": "[5]; TGF-B1 (3 ng/ml) treated dPHFs", "value": "downregulated"}, {"measurement": "FN1 and COL1A1 expression", "setting": "[5]; TGF-B1 stimulated fibroblasts", "value": "moderately decreased"}, {"measurement": "expression of PAI", "setting": "[5]; TGF-B1 stimulated fibroblasts", "value": "significantly downregulated"}, {"measurement": "extracellular fibronectin and collagen-1", "setting": "[1]; [7]", "value": "markedly downregulated"}, {"measurement": "intracellular and extracellular PAI-1", "setting": "[1]; [7]", "value": "reduced"}, {"measurement": "CD36 gene and surface expression", "setting": "CD36; TGF-B1 stimulated dPHFs, caffeic acid 40 uM", "value": "restored"}]}
{"molecule": "Cl.N", "note": "[NH4Cl]", "values": [{"measurement": "effect on intracellular levels of fibronectin and collagen-1", "setting": "[1]", "value": "no effect"}, {"measurement": "effect on downregulation of extracellular fibronectin and collagen-1 by caffeic acid", "setting": "[1]", "value": "inhibit"}]}
{"molecule": "Cc1c(NC(=O)c2cc(C(N)=O)nc3cc(F)ccc23)c(C(F)(F)F)nn1Cc1ccc(C#N)cc1", "note": "[BAY-876]", "values": [{"measurement": "extracellular levels of fibronectin, collagen-1, and PAI-1 (ECM proteins)", "setting": "[1]; dPHFs, WZB-117 10 uM", "value": "downregulation"}]}
{"molecule": "O=C(/C=C/c1ccc(O)c(O)c1)OCCc1ccccc1", "note": "[CAPE, caffeic acid phenethyl ester]", "values": [{"measurement": "functional and histological evidence of fibrosis severity (leg contracture, trichrome)", "setting": "[6]; CAPE IP 10 mg/Kg 3 times per week for 10 weeks", "value": "significantly reduced"}, {"measurement": "PPAR signaling in skin", "setting": "[6]; [8]", "value": "upregulated"}, {"measurement": "expression of CD36 in skin", "setting": "[6]; [8]", "value": "upregulated"}, {"measurement": "CD36 expression in vimentin+ (mesenchymal) cells, co-immunofluorescence", "setting": "[6]; mice with skin fibrosis, CAPE treatment", "value": "increase"}, {"measurement": "fibronectin, collagen-1 and PAI-1", "setting": "[1]; TGF-B1 (3 ng/ml) treated dPHFs, CAPE 5 uM", "value": "downregulate"}]}
{"molecule": "CCOC(=O)[C@@]1(CCCCCCOc2ccc(Cl)cc2)CO1", "note": "[etomoxir]", "values": [{"measurement": "rescue of WZB-117 and 2-DG inhibition of SMAD3 dependent transcription", "setting": "SMAD3; TGF-B1 + WZB-117 or 2-DG + etomoxir 10 uM", "value": "not rescued"}, {"measurement": "effect on caffeic acid's reduction of SMAD3 dependent transcription", "setting": "SMAD3; TGF-B1 + caffeic acid 40 uM + etomoxir 10 uM", "value": "inhibited"}, {"measurement": "effect on the downregulation of pro-fibrotic proteins by caffeic acid", "setting": "[1]; TGF-B1 + caffeic acid 40 uM + etomoxir, dPHFs", "value": "inhibited"}, {"measurement": "extracellular levels of fibronectin, collagen-1, and PAI-1 (ECM proteins)", "setting": "[1]; dPHFs, WZB-117 10 uM", "value": "elevation"}, {"measurement": "CD36 surface expression", "setting": "CD36; dPHFs, Etomoxir 10 uM for 24 hours", "value": "downregulated"}]}
